This is an account of results in patent US20180319865A1, “Identification of Novel Small Molecule Beta2 Integrin Agonists” (Rush University Medical Center, priority 2016, published 2018).

The target of test [1] is T1, mutant integrin CD11bE320A/CD18 (Homo sapiens, UniProt P11215, E336A).
T1 construct: expressed in transfected cells; host or cells: K562 (ATCC)
Briefly: HTS cell adhesion assay, K562 E320A cells on immobilized fibrinogen. The test is classed as cell-based. Conditions: five point dose-response. The method, then:
K562 cells stably expressing CD11c/CD18 (K562 CD11c/CD18) were generated similarly. […] K562 cells stably transfected with mutant integrin CD11bE320A/CD18 (K562 E320A) were generated according to literature protocols. All cell lines were maintained in Iscove's Modified Dulbecco's Medium (IMDM) supplemented with 10% heat-inactivated fetal bovine serum, 50 IU/mL penicillin and streptomycin and 0.5 mg/mL G418.
(§1) Cell adhesion assays with immobilized ligands were performed using the general protocol previously described and as illustrated in FIG. 1 [33]. Assays with all different K562 cell lines (K562, K562 CD11b/CD18, K562 CD11c/CD18 and K562 E320A) were performed in an identical fashion. Briefly, 384-well microplates (Corning 3700) were coated with 15 μg/mL fibrinogen (Fg) ligand in PBS^++ overnight at 4° C. At the same time, anti-CD18 (IB4) mAb was also coated. Subsequently, the coated wells were washed with 1% nonfat milk in TBS at room temperature for 1 hour. Next, the wells were washed 3 times with TBS, and the coated microplates were used in the HTS assays.
(§2) K562 CD11b/CD18, K562 CD11bE320A/CD18 and K562 CD11c/CD18 cells were washed with TBS, and cells were transferred to the Fg-coated wells of microplates in the assay buffer (Ca^2+ and Mg^2+ for physiological condition, Mn^2+ as the Positive control). A 1 μL aliquot of the compounds were transferred to each washed well with multichannel pipet from the 384-well plates.
(§3) The assay plates were incubated at 37° C. in the presence of small-molecule compounds for 30 min. To dislodge the non-adherent cell, the assay plates were gently inverted and kept in inverted position for 20 min at room temperature.
(§4) The cells were fixed with 37% formaldehyde in a small volume and the plates were kept inverted for 1 h. Upon the fixation, the solutions in the well were discarded. Next, the cells were fluorescently labeled with DAPI (0.5 μM final in TBS with 0.1% Triton X-100) and the quantitated with “Opera High Content Screening System” (Perkin Elmer).
Cell-adhesion under positive and negative control conditions was used to define the activity scale; signal corresponding to the number of non-small molecule treated cells adherent in activating buffer condition (in the presence of Mn^2+ ions as agonist, PC) was considered maximum (100% binding) and the signal corresponding to the number of non-small molecule treated cells adherent in basal buffer condition (in the presence of 1 mM each of Ca^2+ and Mg^2+, NC) was considered minimum (0% binding).

Test [2] concerns the target T2, integrin CD11c/CD18 (Homo sapiens, UniProt P20702).
T2 construct: expressed in transfected cells; host or cells: K562 (ATCC)
Put plainly: HTS cell adhesion assay, K562 CD11c/CD18 cells on immobilized fibrinogen. The test is classed as cell-based. As for the experimental part: K562 cells stably expressing CD11c/CD18 (K562 CD11c/CD18) were generated similarly. Mutant CD11bE320A has been described previously. K562 cells stably transfected with mutant integrin CD11bE320A/CD18 (K562 E320A) were generated according to literature protocols. All cell lines were maintained in Iscove's Modified Dulbecco's Medium (IMDM) supplemented with 10% heat-inactivated fetal bovine serum, 50 IU/mL penicillin and streptomycin and 0.5 mg/mL G418.
as §1, §2, §3, §4
Cell-adhesion under positive and negative control conditions was used to define the activity scale; signal corresponding to the number of non-small molecule treated cells adherent in activating buffer condition (in the presence of Mn^2+ ions as agonist, PC) was considered maximum (100% binding) and the signal corresponding to the number of non-small molecule treated cells adherent in basal buffer condition (in the presence of 1 mM each of Ca^2+ and Mg^2+, NC) was considered minimum (0% binding). […]
The compounds were diluted in DMSO by the final concentration 10 μM, 5 μM, 2.5 μM, 1.25 μM and 0.625 μM and stocked as sealed in 384-well plates at −80° C.

The mark [3] stands for this setting: Table 3, adhesion to fibrinogen.
Where [4] appears, read: Table 4, adhesion to fibrinogen.

Where two headings read alike, the source gives them in different places.

T2 sequence (P20702 with tags, fused parts or gaps): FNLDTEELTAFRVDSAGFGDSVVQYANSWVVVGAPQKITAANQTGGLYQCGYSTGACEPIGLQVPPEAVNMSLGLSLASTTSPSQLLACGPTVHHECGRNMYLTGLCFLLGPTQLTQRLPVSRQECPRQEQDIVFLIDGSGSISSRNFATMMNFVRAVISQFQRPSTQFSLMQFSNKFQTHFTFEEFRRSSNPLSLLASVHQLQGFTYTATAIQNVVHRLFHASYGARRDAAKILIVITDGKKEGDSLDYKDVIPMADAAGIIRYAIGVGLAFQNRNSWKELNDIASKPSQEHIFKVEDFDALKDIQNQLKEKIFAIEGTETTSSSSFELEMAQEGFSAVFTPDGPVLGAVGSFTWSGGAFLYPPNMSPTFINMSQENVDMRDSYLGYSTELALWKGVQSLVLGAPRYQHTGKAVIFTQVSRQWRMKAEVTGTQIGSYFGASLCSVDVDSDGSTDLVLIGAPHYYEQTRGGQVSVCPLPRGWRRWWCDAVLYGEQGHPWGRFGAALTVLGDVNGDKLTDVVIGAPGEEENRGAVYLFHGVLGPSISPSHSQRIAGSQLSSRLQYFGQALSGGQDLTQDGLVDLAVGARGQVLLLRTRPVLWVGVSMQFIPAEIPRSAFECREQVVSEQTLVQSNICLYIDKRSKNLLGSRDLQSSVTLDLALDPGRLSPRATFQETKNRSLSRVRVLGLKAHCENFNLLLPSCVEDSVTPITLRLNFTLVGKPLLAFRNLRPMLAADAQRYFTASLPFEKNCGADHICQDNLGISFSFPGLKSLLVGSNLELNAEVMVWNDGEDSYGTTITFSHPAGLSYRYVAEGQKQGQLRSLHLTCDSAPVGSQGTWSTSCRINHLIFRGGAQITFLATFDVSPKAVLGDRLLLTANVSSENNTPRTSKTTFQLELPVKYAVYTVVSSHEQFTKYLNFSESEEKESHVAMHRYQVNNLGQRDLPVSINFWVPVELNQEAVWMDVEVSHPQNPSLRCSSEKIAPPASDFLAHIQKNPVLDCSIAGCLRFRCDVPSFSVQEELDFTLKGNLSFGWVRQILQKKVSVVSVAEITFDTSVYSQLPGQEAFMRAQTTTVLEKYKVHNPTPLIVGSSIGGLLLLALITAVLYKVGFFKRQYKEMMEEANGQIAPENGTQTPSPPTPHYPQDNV
T2 sequence (P05107 23-769 partner): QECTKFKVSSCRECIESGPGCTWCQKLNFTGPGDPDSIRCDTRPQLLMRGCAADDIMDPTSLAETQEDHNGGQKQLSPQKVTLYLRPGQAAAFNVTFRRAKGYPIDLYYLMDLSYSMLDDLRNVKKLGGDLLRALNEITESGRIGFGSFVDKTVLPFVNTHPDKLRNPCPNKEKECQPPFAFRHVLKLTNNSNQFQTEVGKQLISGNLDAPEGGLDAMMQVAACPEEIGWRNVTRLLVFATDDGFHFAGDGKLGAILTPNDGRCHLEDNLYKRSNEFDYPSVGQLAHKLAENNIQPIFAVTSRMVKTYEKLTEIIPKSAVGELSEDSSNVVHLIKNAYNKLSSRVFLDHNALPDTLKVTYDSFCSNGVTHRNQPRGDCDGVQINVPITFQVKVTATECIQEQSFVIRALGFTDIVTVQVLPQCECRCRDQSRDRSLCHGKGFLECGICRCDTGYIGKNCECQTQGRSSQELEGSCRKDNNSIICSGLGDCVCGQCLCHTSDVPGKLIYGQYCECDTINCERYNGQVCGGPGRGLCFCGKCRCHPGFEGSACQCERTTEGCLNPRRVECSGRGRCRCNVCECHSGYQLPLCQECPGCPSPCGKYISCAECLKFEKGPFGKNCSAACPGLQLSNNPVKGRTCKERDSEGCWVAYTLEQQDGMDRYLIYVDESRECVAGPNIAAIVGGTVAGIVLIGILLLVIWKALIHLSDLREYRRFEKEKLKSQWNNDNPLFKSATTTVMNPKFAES
T1 sequence (P11215 17-1152 E336A): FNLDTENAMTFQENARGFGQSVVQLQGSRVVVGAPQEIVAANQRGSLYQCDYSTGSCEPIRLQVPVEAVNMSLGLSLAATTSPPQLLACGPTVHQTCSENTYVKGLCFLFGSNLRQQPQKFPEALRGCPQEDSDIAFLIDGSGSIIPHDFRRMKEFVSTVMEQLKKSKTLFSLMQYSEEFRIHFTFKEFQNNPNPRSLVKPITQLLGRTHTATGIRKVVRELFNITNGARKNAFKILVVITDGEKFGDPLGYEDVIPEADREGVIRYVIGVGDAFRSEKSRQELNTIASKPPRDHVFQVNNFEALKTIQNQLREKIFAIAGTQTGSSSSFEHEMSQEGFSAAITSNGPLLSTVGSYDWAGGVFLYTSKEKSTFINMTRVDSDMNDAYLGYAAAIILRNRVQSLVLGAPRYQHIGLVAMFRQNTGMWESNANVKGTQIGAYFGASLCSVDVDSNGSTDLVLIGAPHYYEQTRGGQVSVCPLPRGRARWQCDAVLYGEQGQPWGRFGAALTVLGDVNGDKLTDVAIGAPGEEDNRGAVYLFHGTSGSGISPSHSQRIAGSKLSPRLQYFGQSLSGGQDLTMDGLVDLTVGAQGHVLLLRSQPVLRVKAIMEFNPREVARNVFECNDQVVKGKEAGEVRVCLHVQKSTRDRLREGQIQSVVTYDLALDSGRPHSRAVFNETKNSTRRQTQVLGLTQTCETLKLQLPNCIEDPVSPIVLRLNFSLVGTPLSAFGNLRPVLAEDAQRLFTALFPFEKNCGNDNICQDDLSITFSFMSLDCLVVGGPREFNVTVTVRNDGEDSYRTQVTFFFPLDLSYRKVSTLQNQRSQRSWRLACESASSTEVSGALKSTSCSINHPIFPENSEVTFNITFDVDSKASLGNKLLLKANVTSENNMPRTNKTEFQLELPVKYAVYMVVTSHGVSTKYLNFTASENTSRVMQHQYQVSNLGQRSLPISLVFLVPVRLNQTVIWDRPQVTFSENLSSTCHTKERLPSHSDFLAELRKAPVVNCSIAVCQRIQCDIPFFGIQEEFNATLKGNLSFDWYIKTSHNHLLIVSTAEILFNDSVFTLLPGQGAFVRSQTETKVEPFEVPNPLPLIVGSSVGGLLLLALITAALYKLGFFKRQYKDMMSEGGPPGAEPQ
T1 sequence (P05107 23-769 partner): as the sequence (P05107 23-769 partner) above

In the case of `COc1ccc(/C=C2/SC(=O)N(CC(=O)Nc3cc(C)on3)C2=O)cc1OC` [Compound 1554642], the EC50 in test [1] (setting [3]) came out at 7.9 µM; in test [2] it was 5.26 µM. The corresponding values for `Cc1ccc2sc(-c3ccc(NC(=O)c4cc(-n5cnnc5)ccc4Cl)cc3)nc2c1` [Compound 1017701] are 8.11 µM and 2.72 µM. The corresponding values for `Cc1ccc(/C=c2\sc3nc(-c4ccccc4Br)nn3c2=O)o1` [Compound 1891182] are 6.86 µM and 5.27 µM. Turning to `CCOC(=O)c1c(-n2c(C)cc(C=C3C(=O)NC(=S)NC3=O)c2C)sc2c1CCCC2` [Compound 1494229], the EC50 in test [1] (setting [3]) came out at 6.53 µM; in test [1] (setting [4]) it was 6.53 µM; in test [2] (Table 4, K562 CD11c/CD18 cells, adhesion to fibrinogen, dose-response, read-out: EC50 CD11c/CD18) it was 6.72 µM.

On to `O=C(CCN1C(=O)c2ccccc2C1=O)Nc1ccc(-c2nc3ccccc3o2)cc1` [Compound 1262031], for which the EC50 came to 1.6 µM in test [1] (setting [3]) and 7.21 µM in test [2].

Take `COC(=O)c1[nH]c2ccccc2c1NC(=O)CN1CCCc2ccccc21` [Compound 658682]: the EC50 in test [1] (setting [3]) is 1.6 µM; in test [2], 0.621 µM.

For the compound `CCCCn1c(SCC(=O)c2ccc(OC)cc2OC)nc2cc(S(N)(=O)=O)ccc21` [Compound 2997788], the figures for the EC50 in test [1] (setting [3]) and in test [2] were 5.27 µM and 4.72 µM, respectively. For the compound `Cc1cc(C)cc(-n2c(N)c(C(=O)Nc3c(C)n(C)n(-c4ccccc4)c3=O)c3nc4ccccc4nc32)c1` [Compound 1967927], the figures for the EC50 in test [1] (setting [3]) and in test [2] were 2.67 µM and 2.49 µM, respectively. As to `Cc1ccc2nc(-c3ccc(NC(=O)COC(=O)c4cncc(Br)c4)cc3)sc2c1` [Compound 2365417], the EC50 in test [1] (setting [3]) turned out to be 2.83 µM; in test [2], 4.04 µM. Consider `COCCCNC(=O)c1c(N)n(/N=C/c2cccs2)c2nc3ccccc3nc12` [Compound 6880740], for which the EC50 was 4.99 µM in test [1] (setting [3]) and 2.6 µM in test [2]. With `Cc1ccc(/C=C/C(=O)Nc2ccc([N+](=O)[O-])c(NC(=O)/C=C/c3ccc(C)o3)c2)o1` [Compound 5736971], the results for the EC50 in test [1] (setting [3]) and in test [2] were 6.55 µM and 4.5 µM, respectively. As for `N#Cc1sc2nc(-c3ccccc3)cc(-c3ccco3)c2c1N` [Compound 629074], the EC50 turned out to be 5.16 µM in test [1] (setting [3]) and 2.36 µM in test [2].

Regarding `CCOC(=O)N1CCC(NC(=O)c2ccc3c(c2)sc2nc(-c4ccc(OC)cc4)cn23)CC1` [Compound 3235854], the EC50 stood at 5.55 µM in test [1] (setting [3]) and 2.71 µM in test [2]. The corresponding values for `Cc1ccc(C)c(NC(=S)NC(NC(=O)Cc2cccc3ccccc23)C(Cl)(Cl)Cl)c1` (stereo not drawn) [Compound 2831455] are 5.08 µM and 6.87 µM. As for `Cc1nc(C)c(C(=O)Nc2nc3c(C)cccc3s2)o1` [Compound 3244965], the EC50 stood at 4.91 µM in test [1] (setting [3]) and 4.03 µM in test [2]. In turn, `COC(=O)c1cc(OC)c(OC)cc1NC(=O)c1cc(-c2ccccc2)nc2ccccc12.Cl` [Compound 2965657] displayed an EC50 in test [1] (setting [3]) of 12.8 µM. Moreover, in test [2] (Table 3, K562 CD11c/CD18 cells, adhesion to fibrinogen, dose-response), the “EC50 CD11c/CD18” value is “Infinite”. With `CC(C)CNC(=O)c1c(N)n(/N=C/c2ccccn2)c2nc3ccccc3nc12` [Compound 9568664], the EC50 is 6.19 µM in test [1] (setting [3]) and 3.73 µM in test [2]. The corresponding values for `N=C1/C(=C\c2ccc(-c3cccc(Cl)c3)o2)C(=O)N=C2SC=C(c3ccccc3)N12` [Compound 1984877] are 3.07 µM and 2.16 µM. For the compound `COc1ccc2cc3cc(C(=O)Nc4ccc5c(c4)OCCO5)oc3nc2c1` [Compound 3241193], the EC50 was 1.28 µM in test [1] (setting [3]) and 0.691 µM in test [2]. As for `CCc1nnc(NC(=O)c2sc3nc4c(cc3c2N)CCCCCC4)s1` [Compound 5143923], the EC50 was determined as 5.31 µM in test [1] (setting [3]) and 3.01 µM in test [2]. For the compound `O=C(Nc1nnc(-c2ccccc2SCc2ccccc2)s1)Nc1ccccc1F` [Compound 1964957], the EC50 in test [1] (setting [3]) came to 6.47 µM; in test [2], 10.6 µM. For the compound `Cc1ccsc1/C=C/C1=Cc2c(sc(NC(=O)CSc3nnc(N)[nH]3)c2C#N)C(C)(C)C1` [Compound 2083967], the values for the EC50 in test [1] (setting [3]) and in test [2] were 3.33 µM and 2.7 µM, respectively. Take `O=C(N/N=C/c1ccc(-c2ccc(S(=O)(=O)Nc3ncccn3)cc2)o1)c1cc2ccccc2cc1O` [Compound 6892904]: the EC50 in test [1] (setting [4]) came to 5.49 µM; in test [2], 2.42 µM. On to `COc1ccccc1N1CSC2=C(C#N)C(c3ccc(SC)cc3)CC(=O)N2C1` (stereo not drawn) [Compound 3160888], for which, in test [1] (setting [3]), the EC50 came out at 11.4 µM.

`C=CCN(CC=C)S(=O)(=O)c1ccc(C(=O)Nc2sc3c(c2C(N)=O)CCCCC3)cc1` [Compound 3395368] had an EC50 in test [1] (setting [3]) of 8.78 µM. Consider `CCC(C)N1C(=O)/C(=C/c2ccc3c(c2)CCN3CCCCl)C(=O)NC1=S` (stereo not drawn) [Compound 6513263], for which the EC50 in test [1] (setting [3]) stood at 13.9 µM. Take `COc1ccc(C(=O)CSc2nnc(NC(=O)C3CC(=O)N(c4ccccc4)C3)s2)cc1` (stereo not drawn) [Compound 12006105]: in test [1] (setting [3]), the EC50 was determined as 9.85 µM. Consider `Cc1[nH]nc2ncc(C(=O)c3cc(Cl)cc(Cl)c3O)cc12` [Compound 2421294], for which, in test [1] (setting [3]), the EC50 is 9.81 µM. The compound `CSCCOC(=O)c1[nH]c2c(c1C)C(=O)CC(c1ccco1)C2` (stereo not drawn) [Compound 3162305] had an EC50 in test [1] (setting [3]) of 10.4 µM.

`COc1ccc(C2C(C(C)=O)=C(C)N=c3s/c(=C/c4ccc5c(c4)OCO5)c(=O)n32)cc1` (stereo not drawn) [Compound 5287341]: the EC50 in test [1] (setting [3]) came out at 8.98 µM. Compound `CN(C)c1ccc(NC(=O)Cn2ncn3c(cc4ccccc43)c2=O)cc1` [Compound 3244843] came in with an EC50 in test [1] (setting [3]) of 46.2 µM. As for `Cc1ccnc(N/C=C(\C#N)c2nc(-c3cccc(Br)c3)cs2)c1` [Compound 1352154], the EC50 in test [1] (setting [3]) worked out at 8.01 µM. Turning to `Cc1ccc(CN2C(=O)C3CCCN3c3ccc(S(=O)(=O)N4CCOCC4)cc32)cc1` (stereo not drawn) [Compound 2766156], the EC50 in test [1] (setting [3]) turned out to be 10.7 µM. Regarding `CCOC(=O)c1[nH]c2ccc(Cl)cc2c1NC(=O)/C=C/c1ccc2c(c1)OCO2` [Compound 1973614], the EC50 in test [1] (setting [3]) amounted to 43.6 µM. On the same count and under the same terms, the figure for `O=C(CSc1nc2ccccc2c2nc3ccccc3n12)NCc1ccco1` [Compound 3238872] is 19.1 µM; for `CCOC(=O)N1CCC(NC(=O)c2cccc3c2C(=O)N(c2ccc(OC)cc2)C3)CC1` [Compound 5307705] it is 9.93 µM. Still for that read-out and setting: for `O=C(NCC1OCCc2ccccc21)c1ccc(NC(=O)c2ccc(Cl)cc2)cc1` (stereo not drawn) [Compound 5212443] the value was 13 µM; for `CCOC(=O)c1sc(NC(=O)CSc2nnnn2-c2ccccc2)c(C(=O)OCC)c1C` [Compound 2132989], 18 µM. In turn, `CSc1nc(NCCOCCO)c2sc3nc(-c4ccco4)c4c(c3c2n1)CCC4` [Compound 665043] came in with an EC50 in test [1] (setting [3]) of 9.23 µM. As to `Cc1cc(/C=C2\C(=O)NC(=O)N(c3ccc(Cl)cc3)C2=O)c(C)n1-c1sc2c(c1C#N)CCCC2` [Compound 1418314], in test [1] (setting [3]), the EC50 is 9.57 µM. Still for that read-out and setting: the figure for `O=C(CSc1nnc2c3ccccc3c3ccccc3c2n1)Nc1ccccc1F` [Compound 6402388] is 11.2 µM; for `O=C(/C=C/c1ccc(Cl)cc1)NC(=S)Nc1ccc(N2CCOCC2)c(Cl)c1` [Compound 1345254] it is 7.53 µM; for `Cc1ccc2sc(-c3ccc(NC(=O)CCN4C(=O)c5ccccc5C4=O)cc3)nc2c1` [Compound 1193278] it is 5.17 µM.

`COc1ccc(N=c2oc3ccc(OC)cc3cc2-c2nc3ccccc3[nH]2)cc1` [Compound 1212121] gave an EC50 in test [1] (setting [3]) of 18.8 µM.

In turn, `O=C(NCc1ccco1)c1c2c(nc3ccccc13)CCC2` [Compound 862194] displayed an EC50 in test [1] (setting [3]) of 15.2 µM.
